Molecular target: T1, human P-selectin (Homo sapiens, UniProt P16109)
T1 sequence (P16109 42-771): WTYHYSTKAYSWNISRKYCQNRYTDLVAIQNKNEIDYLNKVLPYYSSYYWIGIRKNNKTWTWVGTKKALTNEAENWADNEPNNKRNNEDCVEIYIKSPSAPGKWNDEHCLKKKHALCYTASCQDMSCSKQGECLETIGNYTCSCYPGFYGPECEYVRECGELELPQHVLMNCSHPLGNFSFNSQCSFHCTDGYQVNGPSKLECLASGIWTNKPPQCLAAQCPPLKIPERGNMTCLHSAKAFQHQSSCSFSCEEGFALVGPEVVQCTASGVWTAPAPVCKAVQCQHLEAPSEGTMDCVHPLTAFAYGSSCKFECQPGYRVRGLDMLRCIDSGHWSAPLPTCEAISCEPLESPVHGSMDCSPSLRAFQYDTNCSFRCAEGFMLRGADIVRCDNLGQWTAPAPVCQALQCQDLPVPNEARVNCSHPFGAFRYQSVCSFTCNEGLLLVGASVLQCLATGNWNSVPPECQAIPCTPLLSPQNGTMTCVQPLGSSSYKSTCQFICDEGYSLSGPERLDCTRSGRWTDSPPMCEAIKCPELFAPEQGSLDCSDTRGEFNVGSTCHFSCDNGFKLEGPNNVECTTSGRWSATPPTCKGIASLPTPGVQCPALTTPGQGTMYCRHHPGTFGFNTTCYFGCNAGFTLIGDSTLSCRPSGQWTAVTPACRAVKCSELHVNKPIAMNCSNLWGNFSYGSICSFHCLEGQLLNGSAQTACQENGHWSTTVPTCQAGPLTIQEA
Assay: inhibition assay of SO3-sLea-PAA-biotin binding to immobilized P-selectin
Details: inhibition of HSO3-Lea-PAA-biotin (0.33 μg/ml) binding to immobilized human P-selectin/IgG-Fc, 2 hours at 37° C.
Experimental: The activity of compound 3 was evaluated in an inhibition assay of SO3-sLe^a-PAA-biotin binding to immobilized P-selectin as described in the literature (G. Weitz-Schmedt et al., Anal. Biochem. 238, 184-190, 1996) and compared to that of its mannosyl analogue (reference compound 2). A 96 microtiter plate (High binding flat bottom, Costar, Corning, U.S.A.) was coated overnight at 4° C. with 10 μg/ml goat anti-human IgG in coating buffer (50 mM NaHCO3, pH 9.6). Subsequently, wells were washed with assay buffer (20 mM HEPES, 150 mM NaCl, 1 mM CaCl2, pH 7.4) and incubated for 1 hour at 37° C. with blocking buffer (3% BSA in assay buffer). After washing with assay buffer, the wells were incubated for 2 hours at 37° C. with human P-selectin/IgG-Fc (0.3 μg/ml) or CD4/IgG-Fc (as negative control). Subsequently, wells were washed three times with assay buffer and incubated for 2 hours at 37° C. in binding buffer (0.1% BSA, 0.05% Tween 20 in assay buffer) with 0.33 μg/ml HSO3-Le^a-PAA-biotin and the compound. The wells were washed six times with binding buffer and 3,3′,5,5′-tetramethylbenzine (TMB)/H2O2 was added and incubated at room temperature for 15 minutes. The reaction was halted by addition of 2M H2SO4 and the absorbance was measured at 450 nm.
The binding of compounds 6d, 6f, and 6i to P-selectin was evaluated using the same inhibition assay as described in example 2.

Row | EC50 [mM] | SMILES
1 | 2 | O=C(COP(=O)(O)O)C(O)C(O)COC1OC(CO)C(O)C(O)C1O (centres unmarked) [Compound 3]
2 | 4.5 | CCCCCCCC(=O)NC1C(OCC(O)C(O)C(=O)COP(=O)(O)O)OC(CO)C(O)C1O (centres unmarked) [Compound 6c]
3 | 8.2 | O=C(COP(=O)(O)O)C(O)C(O)COC1OC(CO)C(O)C(O)C1O (centres unmarked) [Reference compound 2, reference compound]
4 | 3.7 | O=C(NC1C(OCC(O)C(O)C(=O)COP(=O)(O)O)OC(CO)C(O)C1O)OCC(Cl)(Cl)Cl (centres unmarked) [Compound 6d]
5 | 0.9 | O=C(NC1C(OCC(O)C(O)C(=O)COP(=O)(O)O)OC(CO)C(O)C1O)c1ccccc1 (centres unmarked) [Compound 6f]
